Experimental data as given in patent US7553844B2 (Jarrow Formulas, Inc., priority 2003, dated 2009).

Columns and labels:
primary HIV-1 isolates = format: cell-based; conditions: 1 μM CQ; data not shown
Source text: (§1) Laboratory-adapted HIV-1IIIB and HIV-2CBL/20 strans, the primary isolates HIV-1UG3 (Clade A, R5) and HIV-1VI 829 (Clade C, R5), both obtained from antiretroviral-naive subjects were used. These viruses are fully described in the paper by Savarino A. et al. referenced above. The HIV-1PAVIA12 isolate was also used. It was donated by Dr. Maurizia Debiaggi, University of Pavia, Italy, who also performed its genotypic analysis. It belongs to Clade B and was isolated from an individual with HAART failure. […] Viral stocks were titrated biologically by the 50% endpoint dilution method, using MT-2 cells (laboratory strains) or PHA-activated peripheral blood mononuclear cells (PBMC) (primary isolates).
(§2) In acute infection assays, the appropriate cell types were incubated at 37° C. for 2 h with the viral stock suspensions at a multiplicity of infection (MOI) of approximately 0.1, unless otherwise specified. After three washes, cells were incubated in fresh culture medium for 7 days at 37° C., and cell-free supernatants at different intervals post-infection were harvested for ELISA measurement of HIV-1 p24 (NEN Life Science Prod., Boston Mass.) or HIV-2 p27 (Coulter, Hialeah, Fla.) (26, 33).
(§3) Tests were conducted to evaluate the concentrations of each drug in the different combinations that produced 90% inhibition of HIV-1 replication. For each drug combination, the FIC was determined. […]

HIV-1 IIIB = experiment: acute infection assay, HIV-1 p24 ELISA, MT-4 cells; format: cell-based; conditions: Human immunodeficiency virus 1, MT4; HIV-1 IIIB-infected MT-4 cells; data not shown
Source text: as §1, §2
A fractional inhibitory concentration (FIC) was then calculated as drug EC90 of drug A in combination with drug 2/EC90 of drug B alone. The effect was considered to be synergistic when the sum of FICs was ≦0.5. […]

UG3 (HIV-1 Clade A) = experiment: infection of PBMC with primary isolate UG3, p24; format: cell-based; conditions: without CQ
Source text: as §1, §2, §3

[1] = tested on: P. falciparum (3D7, Ibginovia); experiment: P. falciparum LDH activity, protease inhibitors alone; format: cell-based, Plasmodium falciparum; conditions: PI alone, 48 h, clinically observable concentrations
Description: Results are shown as a percentage of control values.
(§4) Ibginovia is an isolate obtained at the Istituto Superiore di Sanità, Rome, Italy, positive for mutations in the codons K76 and A220 of the pfcrt gene conferring CQ resistance. The parasite's origin is Nigeria. All parasites were maintained in vitro in RPMI 1640 medium to which was added human type A red blood cells (RBC) and 10% heat-inactivated human serum. All cultures were placed in a humidified incubator at 37° C. with a gas-controlled environment of 3% O2, 6% CO2, and 91% N2 and fed according to established procedures.
(§5) This assay is based on the principle that plasmodial lactate dehydrogenase (LDH) can use 3-acetylpyridine NAD (APAD) as a coenzyme, which is converted to APADH during lactate oxidation. All samples for LDH determination were measured spectrophotometrically at 650 nm. For these measurements, 10-50 μl of the malaria sample was added to the Mastat reagent, which is an optimized formulation for parasite LDH detection. […] The formation of APADH was determined at 650 nm using a multiwavelength plate reader. Each well of a test microtiter plate was automatically measured at 30-sec. intervals, and the individual data points were stored and subsequently plotted with a software program. […] As APADH is formed, the NBT is reduced and forms a formazan product that is blue and can be detected visually and measured at 650 nm. […]

[2] = tested on: CQ-resistant P. falciparum strain (W2); experiment: P. falciparum LDH activity, CQ with or without PI, W2; format: cell-based, Plasmodium falciparum
Description: (§6) A fractional inhibitory concentration (FIC) was then calculated as drug EC90 of drug A in combination with drug 2/EC90 of drug B alone. The effect was considered to be synergistic when the sum of FICs was ≦0.5.
(§7) This assay is based on the principle that plasmodial lactate dehydrogenase (LDH) can use 3-acetylpyridine NAD (APAD) as a coenzyme, which is converted to APADH during lactate oxidation. All samples for LDH determination were measured spectrophotometrically at 650 nm. For these measurements, 10-50 μl of the malaria sample was added to the Mastat reagent, which is an optimized formulation for parasite LDH detection. The samples consisted of malaria cultures. All aliquots were added to 0.2 ml of the Malstat reagent using a 96-well microtiter plate format. The formation of APADH was determined at 650 nm using a multiwavelength plate reader. Each well of a test microtiter plate was automatically measured at 30-sec. intervals, and the individual data points were stored and subsequently plotted with a software program. The spectrophotometric assessment of LDH activity was facilitated by adding NBT (0.24 mM) and PES (0.033 mM) to Malstat reagent. As APADH is formed, the NBT is reduced and forms a formazan product that is blue and can be detected visually and measured at 650 nm. This assay is specific for parasitic LDH and is not influenced by the human enzyme. […]

[3] = tested on: CQ-sensitive P. falciparum strain (3D7); experiment: P. falciparum LDH activity, CQ with or without PI, 3D7; format: cell-based, Plasmodium falciparum
Description: as §6, §7

[4] = tested on: CQ-resistant P. falciparum field isolate (Ibginovia); experiment: P. falciparum LDH activity, CQ with or without PI, Ibginovia; format: cell-based, Plasmodium falciparum; conditions: PI with CQ, 48 h; PI at sub-optimally inhibiting concentration
Source text: In order to illustrate typical results, data are shown as a mean ±S.D. optical density (O.D.) at the end of a reaction mediated by plasmodial lactate dehydrogenase (LDH), as described in the Materials and Methods of the EXAMPLES section. The O.D. values are directly proportional to P. falciparum cell viability.
as §4, with “All cultures were placed in a humidified incubator at 37° C. with a gas-controlled environment of 3% O2, 6% CO2, and 91% N2 and fed according to established procedures.” left out
as §5, with “nm.” for “nm. For these measurements, 10-50 μl of the malaria sample was added to the Mastat reagent, which is an optimized formulation for parasite LDH detection.”

P. berghei = experiment: murine malaria model, Balb/c mice infected with P. berghei; format: in vivo, Plasmodium berghei; conditions: 50 or 150 mg/kg intragastrically
Description: FIG. 6. Antimalarial effects of RTV in mice infected with Plasmodium berghei.
FIG. 6A. Effects of RTV (50 mg/kg) on P. berghei growth in Balb/c mice. Results are shown as an average ±S.D. of the percentage of parasitized red blood cells at different days of follow-up.
FIG. 6B. Effects of RTV (50 mg/kg) on survival of mice infected with P. berghei. Results are shown as Kaplan Meyer curves and the P value for difference in survival is reported.
FIG. 6C. Effects of RTV (150 mg/kg) on P. berghei growth in Balb/c mice. Results are shown as an average ±S.D. of the percentage of parasitized red blood cells at different days of follow-up.
FIG. 6D. Effects of RTV (150 mg/kg) on survival of mice infected with P. berghei. Results are shown as Kaplan Meyer curves and the P value for difference in survival is reported.
Parasitemia was determined by light microscopy using Giemsa-stained thin smears and with fluorescence microscopy using the dye benzothiocarboxypurine.
To evaluate the effects of a PI in an animal model of malaria, Balb/c mice were inoculated intraperitoneally with P. berghei and then divided into three groups: 1) mock-treated with an intragastric inoculation of phosphate-buffer saline (PBS), 2) treated intragastrically with the ritonavir diluent (i.e., a 47% alcoholic solution) in the absence of ritonavir (placebo), and 3) treated intragastrically with 50 or 150 mg/kg.

SMILES	inhibitory effect of CQ alone (primary HIV-1 isolates)	EC50 (HIV-1 IIIB) [µM]	p24 levels in supernatants (UG3 (HIV-1 Clade A); 100 nM IDV, 5 days after infection)	IDV concentration at which inhibitory effects were visible (UG3 (HIV-1 Clade A)) [µM]	P. falciparum growth (LDH activity) [1]	sum of FICs ([2]; CQ+PI combination, W2 strain, ≦0.5 indicates synergism)	response to CQ in CQ-resistant P. falciparum ([2]; IDV (5 μM) with CQ, 48 h)	sum of FICs ([3]; CQ+PI combination, 3D7 strain)	effects of IDV on CQ-response ([3]; IDV (5 μM) with CQ, compared with CQ-resistant strains)	response to CQ in CQ-resistant P. falciparum [4]	parasite multiplication in mice (P. berghei; Balb/c mice)	survival of treated mice (P. berghei; Kaplan-Mayer curves)
CCN(CC)CCCC(C)Nc1ccnc2cc(Cl)ccc12 (stereo not shown) [CQ, Chloroquine]	minimal	–	–	–	–	–	–	–	–	–	–	–
CC(C)(C)NC(=O)[C@@H]1CN(Cc2cccnc2)CCN1C[C@@H](O)C[C@@H](Cc1ccccc1)C(=O)N[C@H]1c2ccccc2C[C@H]1O [IDV, indinavir]	–	~0.01	typical peak in the p24 levels in supernatants	1	dose-dependently inhibited P. falciparum growth	≤ 0.5	restored the response to CQ	> 0.5	less dramatic	–	–	–
CC(C)c1nc(CN(C)C(=O)N[C@H](C(=O)N[C@@H](Cc2ccccc2)C[C@H](O)[C@H](Cc2ccccc2)NC(=O)OCc2cncs2)C(C)C)cs1 [RTV, ritonavir]	–	–	–	–	dose-dependently inhibited P. falciparum growth	–	–	–	–	restored the response to CQ	dose-dependently retarded parasite multiplication in mice	increased survival of treated mice in a significant manner
